The source made the active and inactive calls. Rule as the data show it: actives have a measured IC50 and inactives only a lower limit.

The assay deals with Envelope glycoprotein gp160 (Human immunodeficiency virus 1, UniProt Q6QLK5). The assay is described as follows: inhibitors of HIV fusion peptide binding, primary screen, biochemical, uHTS, fluorescence dequenching (AID 1986).
Sequence of Envelope glycoprotein gp160 (Q6QLK5 whole entry, the tested form may be a part): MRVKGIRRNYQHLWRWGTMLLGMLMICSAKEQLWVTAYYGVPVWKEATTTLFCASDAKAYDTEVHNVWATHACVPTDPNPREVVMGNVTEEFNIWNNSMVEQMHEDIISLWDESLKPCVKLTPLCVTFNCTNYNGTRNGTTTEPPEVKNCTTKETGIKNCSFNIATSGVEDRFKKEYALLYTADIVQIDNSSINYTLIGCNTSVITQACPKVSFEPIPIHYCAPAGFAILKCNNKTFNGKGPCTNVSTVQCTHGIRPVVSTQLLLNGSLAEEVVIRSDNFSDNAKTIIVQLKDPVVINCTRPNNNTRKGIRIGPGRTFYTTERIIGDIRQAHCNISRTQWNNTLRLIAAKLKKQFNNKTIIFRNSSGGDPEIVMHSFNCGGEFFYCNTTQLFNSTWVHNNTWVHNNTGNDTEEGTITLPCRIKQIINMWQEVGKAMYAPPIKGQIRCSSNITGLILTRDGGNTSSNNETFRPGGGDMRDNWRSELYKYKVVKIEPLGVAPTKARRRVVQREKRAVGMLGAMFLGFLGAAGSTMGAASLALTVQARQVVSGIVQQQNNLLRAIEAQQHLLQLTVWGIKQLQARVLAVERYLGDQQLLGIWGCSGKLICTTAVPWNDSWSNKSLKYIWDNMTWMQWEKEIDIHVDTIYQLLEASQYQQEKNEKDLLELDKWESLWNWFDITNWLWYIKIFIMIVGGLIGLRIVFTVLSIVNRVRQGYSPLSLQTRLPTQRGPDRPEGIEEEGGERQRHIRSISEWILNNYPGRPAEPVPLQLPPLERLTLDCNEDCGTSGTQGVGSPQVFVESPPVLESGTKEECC

Turning to `Cc1[nH]n(-c2ccccc2)c(=O)c1/C=C1/C(=O)NN(c2ccc(F)c(Cl)c2)C1=O`, the half-maximal inhibitory concentration (IC50) (in general, the concentration that inhibits the measured activity by half) was 12.1 µM (active).

For the origin of these results see ChEMBL document CHEMBL1201862, “PubChem BioAssay data set” (2004).
